Assay results published in US8916681B2, “Compound, use and method” (Medical Research Council, priority 2007, dated 2014).
“Also recorded” adds a separate entry of the source. Non-standard residues stand in square brackets, D forms with d. Residues, ends and D or L forms follow the SMILES beside them.

Tests used:
[1] = test system: GnRH neurons; assay: GnRH neuron firing, targeted extracellular recordings in brain slices; assay type: cell-based, mouse; details: for response of GnRH neuron firing to 1 nM kisspeptin-10 after pretreatment with peptide: 1, 10, 100 nM peptide
Protocol: Firing of GnRH neurons were recorded in brain slices from transgenic female mice in which GFP is genetically targeted to GnRH neurons (42). Mice were housed on a 14 h light, 10 h dark cycle, with lights off at 1630 h, and were maintained on Harlan 2916 rodent chow (Harlan) and water ad libitum. All procedures were approved by the Animal Care and Use Committee of University of Virginia and were conducted within the guidelines of the National Research Council's Guide for the Care and Use of Laboratory Animals. Adult female GnRH-GFP mice were ovariectomized under isoflurane (Abbott Laboratories) anesthesia. Postoperative analgesia was provided by a long-acting local anesthetic (0.25% bupivicaine; 7.5 μl/site; Abbott Laboratories). At the time of surgery, mice received Silastic (Dow Corning) capsules containing 0.625 μg estradiol in sesame oil. […] No more than four cells from a single animal were recorded, all in different slices.
Brain slices were prepared using previously described method (44). Briefly, all solutions were bubbled with a 95% O2/5% CO2 mixture throughout the experiments and for at least 15 min before exposure to the tissue. The brain was rapidly removed and placed in ice-cold, high-sucrose saline solution containing 250 mM sucrose, 3.5 mM KCl, 26 mM NaHCO3, 10 mM glucose, 1.25 mM Na2HPO4, 1.2 mM MgSO4, and 2.5 mM MgCl2. Coronal 300-μm brain slices were cut with a Vibratome 3000 (Technical Products, International, Inc., St. Louis, Mo.). Slices were incubated for 30 min at 30-32 C in a solution of 50% high-sucrose saline and 50% normal saline (NS) containing 135 mM NaCl, 3.5 mM KCl, 10 mM glucose, 1.3 mM Na2HPO4, 1.2 mM MgSO4, and 2.5 mM CaCl2 and then were transferred to a solution of 100% NS at room temperature and kept at least 30 min and no more than 6 h before recording.
Targeted extracellular recordings (also known as loose-patch) were used to study effects of kisspeptin-10 and peptide 234 on GnRH neuron firing activity (45). […] Although these events are not action potentials per se, they accurately reflect changes in the action potential firing rate. For simplicity, we have used the phrases firing rate, firing pattern, and/or firing activity to refer to these events.
Individual brain slices were placed in a recording chamber continuously superfused with oxygenated NS solution and kept at 29-31 C. Cells were visualized with an Olympus BX50WI upright fluorescent microscope with infrared differential interference contrast (Opelco). GnRH neurons were identified by brief illumination at 470 nm to visualize the GFP signal. Patch borosilicate pipettes (World Precision Instruments), which ranged from 1.5-3 ΩM were filled with normal HEPES-buffered solution containing 150 mM NaCl, 10 mM HEPES, 10 mM glucose, 2.5 mM CaCl2, 1.3 mM MgCl2, and 3.5 mM KCl. Pipettes were placed in contact with the GnRH neurons using an MP-285 micromanipulator (Sutter Instruments). Seal resistances ranged from 8 MΩ and either remained stable or increased during recording up to as high as 50 MΩ. Current traces were obtained using an EPC-8 amplifier (HEKA) with the PulseControl XOP (Instrutech) running in Igor Pro (Wavemetrics) on the G4 Macintosh computer (Apple Computer) to acquire data. A voltage-clamp mode with a pipette holding potential of 0 mV, filtering at 10 kHz, digitized with an ITC-18 acquisition interface (Instrutech) was used for the recordings.
Different doses (1 nM, 10 nM, 100 nM) of peptide 234 were used to examine its antagonistic action on kisspeptin-10 activation of gpr-54. Positive control cells were recorded for a 10-min stable baseline, and then treated with kisspeptin-10 for 5 min, followed by a 15-min washout. Experimental cells were recorded for a 5-min stable baseline in NS, followed by 10 min in peptide 234 (1, 10 or 100 nM), then 5 min in kisspeptin-10 plus the same dose of antagonist, followed by a wash in NS. […]

[2] = test system: CHO cells stably expressing human gpr-54; assay: Cell migration (wound healing) assay in CHO cells; assay type: cell-based, Chinese hamster
Protocol: Human Umbilical Vein Endothelial Cells (HUVECs) isolated from neonatal umbilical cord were used as they endogenously express gpr-54, which is though to be involved in cell migration in the placenta. Chinese hamster ovary (CHO) cells which stably express the human gpr-54 receptor were used as a model cell line for wound healing assays. […] Complete media was added along with 1 nM Kisspeptin-10 for HUVECs and 100 nM Kisspeptin-10 for CHO cells, the optimal concentrations to inhibit cell migration (wound healing) in each cell type, in the presence and absence of antagonist 233, 234, 273 and 276 for HUVECs and 234 for CHOs. […] Cells were photographed on the axiovert 2000 at 20× magnification in phase contrast (Hori et al., 2001. Metastin suppresses the motility and growth of CHO cells transfected with its receptor. Biochem Biophys Res Commun 286, 958-963; Stafford et al., 2002, Identification and characterization of mouse metastasis-suppressor KiSS1 and its G-protein-coupled receptor. Cancer Res 62, 5399-5404).

[3] = biological target: T1, GnRH receptors (Homo sapiens, UniProt P30968); assay: Binding to GnRH receptors (data not shown)
T1 sequence (P30968 1-328): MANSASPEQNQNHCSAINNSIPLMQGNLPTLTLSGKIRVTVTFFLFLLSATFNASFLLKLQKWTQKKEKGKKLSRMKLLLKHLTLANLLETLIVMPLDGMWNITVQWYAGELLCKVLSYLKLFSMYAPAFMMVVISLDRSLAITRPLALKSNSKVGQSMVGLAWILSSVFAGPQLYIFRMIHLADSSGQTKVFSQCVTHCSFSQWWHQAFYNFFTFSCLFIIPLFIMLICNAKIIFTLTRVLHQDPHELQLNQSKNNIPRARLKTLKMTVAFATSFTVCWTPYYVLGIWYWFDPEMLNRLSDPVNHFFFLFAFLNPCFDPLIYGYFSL

[4] = biological target: GPR54 (Homo sapiens, UniProt Q969F8); assay: Inositol phosphate (IP) stimulation assay in CHO/gpr-54 cells; assay type: cell-based; parameters: G. Vassart, Univ; Brussels; details: CHO cells stably-expressing human gpr-54
Sequence of GPR54 (Q969F8 whole entry): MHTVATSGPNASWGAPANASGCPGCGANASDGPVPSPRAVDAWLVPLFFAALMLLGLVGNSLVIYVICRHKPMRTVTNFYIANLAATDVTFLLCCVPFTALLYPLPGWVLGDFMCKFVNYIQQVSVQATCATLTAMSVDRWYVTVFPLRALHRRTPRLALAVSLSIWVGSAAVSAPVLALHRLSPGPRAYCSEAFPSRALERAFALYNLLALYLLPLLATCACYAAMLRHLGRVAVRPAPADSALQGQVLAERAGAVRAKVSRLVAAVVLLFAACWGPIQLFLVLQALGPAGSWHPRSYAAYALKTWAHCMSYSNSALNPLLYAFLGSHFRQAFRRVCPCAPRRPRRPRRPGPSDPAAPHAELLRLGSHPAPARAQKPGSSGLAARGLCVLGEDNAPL
Protocol: Inositol-3-phoshate Stimulation Assay—Cell monolayers had 0.5 mls HEPES modified DMEM supplemented with 1% Penicillin/Streptomycin for 30 mins at 37° C. to block IP3 breakdown. Cells were then stimulated with 0.5 mls Kisspeptin-10 and analogues (10 pM-1 uM) diluted at 1:1000 in the above media for 1 hr at 37° C., then in 10 mM Formic acid at 4° C. for 1 hr to lyse cells. Lysate was then transferred to plastic tubes containing 0.5 mls Dowex resin to bind the radioactive IP3 and the resin was then washed with 1 ml H2O. The resin was then washed with 60 mM NH4 formate/5 mM Sodium tetraborate followed by 1M NH4 formate/0.1M Formic acid to release the bound radiation. Then 800 μls of the radioactive solution were transferred to scintillation vials containing 2.5 mls scintillation fluid and radioactivity counted on a Beta counter for 60 seconds.
IP stimulation refers to intrinsic residual agonist activity where estimateable.
The cells were maintained in Dulbecco's modified Eagle's medium (DMEM; Sigma) supplemented with 10% fetal calf serum, 2% glutamine and 1% penicillin (10,000 units/ml)/streptomycin (10,000 mg/ml) at 37° C. in a humidified 5% CO2 atmosphere.
Prior to stimulation CHO/gpr-54 cells were washed twice with Dulbecco's phosphate-buffered saline (DPBS; without calcium or magnesium) then incubated overnight with ^3H-myoinositol, labeled HEPES-modified DMEM with 1% penicillin/streptomycin at 37° C. HEPES-modified DMEM supplemented with 1% penicillin/streptomycin and 1% lithium chloride (0.5 ml) was added to cells for 30 min at 37° C. to block IP hydrolysis. Cells were then stimulated with 0.5 ml kisspeptin-10 and analogues (10 pM-1 μM) diluted at 1:100 in the above media for 1 h at 37° C., then with 10 mM formic acid at 4° C. for 1 h to lyse cells. Lysates were transferred to plastic tubes containing 0.5 ml Dowex resin to bind the radioactive IP and the resin was then washed with 1 ml water. The resin was next washed with 60 mM ammonium formate/5 mM sodium tetraborate. followed by 1M ammonium formate/0.1M formic acid to release the bound radiation. Then 800 μl of the radioactive solution were transferred to scintillation vials containing 2.5 ml scintillation fluid and radioactivity counted on a Beta counter for 60 sec. Experiments were repeated 3-5 times. IP production was plotted as mean values±SEM and analyzed by using a Student's t-Test (p≧0.05).

Compound: CC(C)C[C@H](NC(=O)CNC(=O)[C@H](Cc1ccccc1)NC(=O)[C@H](CO)NC(=O)[C@H](CC(N)=O)NC(=O)[C@H](Cc1c[nH]c2ccccc12)NC(=O)[C@H](CC(N)=O)NC(=O)[C@@H](N)Cc1ccc(O)cc1)C(=O)N[C@@H](CCCNC(=N)N)C(=O)N[C@@H](Cc1ccccc1)C(N)=O [Kiss, reference compound]
- GnRH neuron firing activity ([1]; 1 nM agonist, listed as kisspeptin-10): significantly increased; also recorded: markedly increased
- inhibition of cell migration ([2]; 100 nM): 50%

Compound: CC(=O)N[C@H](C)C(=O)N[C@@H](CC(N)=O)C(=O)N[C@@H](Cc1c[nH]c2ccccc12)C(=O)N[C@@H](CC(N)=O)C(=O)NCC(=O)N[C@@H](Cc1ccccc1)C(=O)NCC(=O)N[C@H](Cc1c[nH]c2ccccc12)C(=O)N[C@@H](CCCNC(=N)N)C(=O)N[C@@H](Cc1ccccc1)C(N)=O [Peptide 234] (Ac-[dA]NWNGFG[dW]RF-NH2)
- GnRH neuron firing activity, peptide alone ([1]; 1 nM, post): 0.27±0.08 Hz
- GnRH neuron firing activity, peptide alone ([1]; 1 nM, pre): 0.18±0.12 Hz
- GnRH neuron firing activity, peptide alone ([1]; 10 nM, post): 0.29±0.17 Hz
- GnRH neuron firing activity, peptide alone ([1]; 10 nM, pre): 0.34±0.15 Hz
- GnRH neuron firing activity, peptide alone ([1]; 100 nM, post): 0.62±0.14 Hz
- GnRH neuron firing activity, peptide alone ([1]; 100 nM, pre): 0.45±0.12 Hz
- effect of peptide alone on GnRH neuron firing activity ([1]; 1, 10, 100 nM): no effect
- response of GnRH neuron firing to 1 nM kisspeptin-10 after pretreatment with peptide [1]: block
- response of GnRH neuron firing to 1 nM kisspeptin-10 after pretreatment with peptide ([1]; listed as peptide 234): significantly reduced; also recorded: blocked
- effect on inhibition of cell migration by 100 nM Kisspeptin ([2]; 22 hrs): completely abolishes
- binding to GnRH receptors [3]: did not bind
- stimulation of IP by the peptide alone [4]: little or no stimulation; also recorded: no intrinsic IP stimulation
